The compounds below were run on RSV A2 (assay: RSV inhibition (cytopathic effect inhibition) using Viral ToxGlo assay in HEp-2 cells). Conditions: human respiratory syncytial virus, RSV A2, MOI 0.5, HEp-2 cells, 72 h p.i.
Format: cell-based
Description: Protocol for Screening Antiviral Compounds for RSV Inhibition and Cytotoxicity Using Viral ToxGlo Assay
HEp-2 cells were maintained in Eagle's minimum essential medium (EMEM) with Earle's BSS adjusted to contain 2 mM L-glutamine, 10% fetal bovine serum, 100 U/ml penicillin and 100 μg/ml streptomycin. For the purposes of the screening assay they were grown to 90% confluency, trypsinized and recovered. The trypsin was neutralised with cell culture media and cells were centrifuged at 150×g for 5 minutes before discarding the supernatant and resuspending cell pellet in assay media (EMEM with Earle's BSS adjusted to contain 2 mM L-glutamine, 2% fetal bovine serum and 100 U/ml penicillin and 100 μg/ml streptomycin). The cells were seeded into white clear-bottomed cell culture plates at a density of 1.5×10^4 cells/well in 50 μl and 4×10^3 cells/well in 25 μl for 96 well plates and 384 well plates respectively. For the media/background control column assay media only was added. Cell plates were placed in a humid chamber and incubated overnight at 37° C./5% CO2. After overnight incubation cells were checked for confluency and healthy appearance.
Test articles were made up at 10× test concentration in a maximum DMSO concentration of 10% (final assay concentration maximal 1% DMSO) and added to the cell plates in volumes of 10 μl for 96 well plates and 5 μl for 384 well plates. For cell control and virus control wells the test article solvent only was added. Virus or assay media for cytotoxicity test wells and media/cell control wells was added immediately after test articles at an MOI of 0.5, 40 or 20 μl for 96 and 384 well plates respectively. Virus suspension was prepared by thawing RSV A2 frozen stocks and diluting to the required concentration of plaque forming units in assay media on ice.
Cell plates were further incubated inside a humid chamber for 72 h p.i at 37° C./5% CO2. After the incubation period cells were observed under the microscope to check for characteristic cytopathic effect in virus control wells and healthy cells in the cell control wells. After plates were adjusted to room temperature 20/40 μl Viral ToxGlo (Promega) was added to each well of the 384/96 well cell plates. Plates were incubated at room temperature, protected from light on a plate rocker for 20 minutes before measuring the luminescence on a spectrophotometer (Biotek Synergy HTX).
RSV inhibition was calculated as percentage of cytopathic effect inhibition relative to the virus control and cytotoxicity as percentage of cell survival relative to cell control wells. This allowed EC50 values to be calculated for each test article where a virus inhibition or cytotoxic dose response was identified.

**Q.** With `CN(c1cccc(C(=O)NCCC2CCCCC2)c1)c1ccc(OCc2ccccn2)cc1C1CC1` [Compound 111, N-(2-cyclohexylethyl)-3-({2-cyclopropyl-4-[(pyridin-2-yl)methoxy]phenyl}(methyl)amino)benzamide] as the compound, how does the EC50 read?
**A.** Its EC50 is 0.062 µM.

**Q.** With `CC(C)CCc1cn(-c2cccc(Nc3ccc(OCc4ccccn4)cc3C3CC3)c2)nn1` [Compound 112, 2-cyclopropyl-N-{3-[4-(3-methylbutyl)-1H-1,2,3-triazol-1-yl]phenyl}-4-[(pyridin-2-yl)methoxy]aniline] as the compound, how does the EC50 read?
**A.** Its EC50 is 0.067 µM.

**Q.** How did the EC50 turn out when `O=C(NCC1CCCC1)c1ccccc1Nc1ccc(OCc2ccccn2)cc1C1CC1` [Compound 113, N-(cyclopentylmethyl)-2-({2-cyclopropyl-4-[(pyridin-2-yl)methoxy]phenyl}amino)benzamide] was run?
**A.** Its EC50 is 0.069 µM.

**Q.** Which EC50 does the source give for `c1ccc(COc2ccc(Nc3cccc(OCCCC4CCCCC4)c3)c(N3CCOCC3)c2)cc1` [Compound 114, 4-(benzyloxy)-N-[3-(3-cyclohexylpropoxy)phenyl]-2-(morpholin-4-yl)aniline] here?
**A.** Its EC50 is 0.071 µM.

**Q.** Which EC50 does the source give for `O=C(NCCC1CCCCC1)c1ccccc1Nc1ccc(OCc2ccccc2)cc1C1CC1` [Compound 115, 2-{[4-(benzyloxy)-2-cyclopropylphenyl]amino}-N-(2-cyclohexylethyl)benzamide] here?
**A.** The EC50 was 0.083 µM.

**Q.** How did the EC50 turn out when `O=C(CCC1CCCCC1)Nc1cc(Nc2ccc(OCc3ccccc3)cc2C(F)(F)F)ccc1F` [Compound 116, N-(5-{[4-(benzyloxy)-2-(trifluoromethyl)phenyl]amino}-2-fluorophenyl)-3-cyclohexylpropanamide] was run?
**A.** The EC50 was 0.093 µM.

**Q.** For `O=C(NCCC1CCCCC1)c1cc(Nc2ccc(OCc3ccccn3)cc2C2CC2)ccn1` [Compound 117, N-(2-cyclohexylethyl)-4-({2-cyclopropyl-4-[(pyridin-2-yl)methoxy]phenyl}amino)pyridine-2-carboxamide], which EC50 is on record?
**A.** Its EC50 is 0.098 µM.

**Q.** With `O=C(NCCC(F)(F)F)c1ccccc1Nc1ccc(OCc2ccccn2)cc1C1CC1` [Compound 120, 2-({2-cyclopropyl-4-[(pyridin-2-yl)methoxy]phenyl}amino)-N-(3,3,3-trifluoropropyl)benzamide] as the compound, how does the EC50 read?
**A.** Its EC50 is 0.11 µM.

**Q.** How did the EC50 turn out when `O=S(=O)(CCCC1CCCCC1)c1ccccc1Nc1ccc(OCc2ccccc2)cc1C1CC1` [Compound 122, 4-(benzyloxy)-N-[2-(3-cyclohexylpropanesulfonyl)phenyl]-2-cyclopropylaniline] was run?
**A.** Its EC50 is 0.116 µM.

**Q.** Which EC50 does the source give for `CC(C)CCNC(=O)c1ccccc1Nc1ccc(OCc2ccccn2)cc1C1CC1` [Compound 123, 2-({2-cyclopropyl-4-[(pyridin-2-yl)methoxy]phenyl}amino)-N-(3-methylbutyl)benzamide] here?
**A.** Its EC50 is 0.12 µM.

**Q.** `O=S(=O)(NCCC1CCCCC1)c1cccc(Nc2ccc(OCc3ccccc3)cc2C(F)(F)F)c1` [Compound 124, 3-{[4-(benzyloxy)-2-(trifluoromethyl)phenyl]amino}-N-(2-cyclohexylethyl)benzene-1-sulfonamide] was tested. Which EC50 did it give?
**A.** Its EC50 is 0.126 µM.

**Q.** `O=C(CCC1CCCCC1)Nc1cc(Nc2ccc(OCc3ccc(F)cc3)cc2C(F)(F)F)ccc1F` [Compound 125, 3-cyclohexyl-N-[2-fluoro-5-({4-[(4-fluorophenyl)methoxy]-2-(trifluoromethyl)phenyl}amino)phenyl]propanamide] was tested. Which EC50 did it give?
**A.** Its EC50 is 0.13 µM.

**Q.** How did the EC50 turn out when `CC(C)CCc1nc(-c2cccc(Nc3ccc(OCc4ccccn4)cc3C3CC3)c2)no1` [Compound 127, 2-cyclopropyl-N-{3-[5-(3-methylbutyl)-1,2,4-oxadiazol-3-yl]phenyl}-4-[(pyridin-2-yl)methoxy]aniline] was run?
**A.** Its EC50 is 0.148 µM.

**Q.** `CC(C)NC(=O)c1c(C#N)cccc1Nc1ccc(OCc2ccccc2)cc1C1CC1` [Compound 128, 2-{[4-(benzyloxy)-2-cyclopropylphenyl]amino}-6-cyano-N-(propan-2-yl)benzamide] was tested. Which EC50 did it give?
**A.** Its EC50 is 0.156 µM.

**Q.** With `c1ccc(COc2ccc(Nc3cccc(-c4noc(CCC5CCCCC5)n4)c3)c(C3CC3)c2)nc1` [Compound 129, N-{3-[5-(2-cyclohexylethyl)-1,2,4-oxadiazol-3-yl]phenyl}-2-cyclopropyl-4-[(pyridin-2-yl)methoxy]aniline] as the compound, how does the EC50 read?
**A.** The EC50 was 0.175 µM.

**Q.** For `c1ccc(COc2ccc(Nc3cccc(-c4nnc(CCC5CCCCC5)o4)c3)c(C3CC3)c2)nc1` [Compound 130, N-{3-[5-(2-cyclohexylethyl)-1,3,4-oxadiazol-2-yl]phenyl}-2-cyclopropyl-4-[(pyridin-2-yl)methoxy]aniline], which EC50 is on record?
**A.** The EC50 was 0.198 µM.

**Q.** `c1ccc(COc2ccc(Nc3cccc(OCCCC4CCCCC4)c3)c(N3CCC3)c2)cc1` [Compound 131, 2-(azetidin-1-yl)-4-(benzyloxy)-N-[3-(3-cyclohexylpropoxy)phenyl]aniline] was tested. Which EC50 did it give?
**A.** Its EC50 is 0.204 µM.

**Q.** For `O=P(O)(O)Oc1cccc(Nc2ccc(OCc3ccccn3)cc2C2CC2)c1` [Compound 133, [3-({2-cyclopropyl-4-[(pyridin-2-yl)methoxy]phenyl}amino)phenoxy]phosphonic acid], which EC50 is on record?
**A.** The EC50 was 0.23 µM.

**Q.** For `CC(C)(C)OC(=O)N1CCN(C(=O)c2cccc(Nc3ccc(OCc4ccccn4)cc3C3CC3)c2)CC1` [Compound 134, tert-butyl 4-[3-({2-cyclopropyl-4-[(pyridin-2-yl)methoxy]phenyl}amino)benzoyl]piperazine-1-carboxylate], which EC50 is on record?
**A.** Its EC50 is 0.281 µM.

**Q.** Which EC50 does the source give for `O=C(O)C(NCCC1CCCCC1)c1cccc(Nc2ccc(OCc3ccccc3)cc2C2CC2)c1` (stereo not shown) [Compound 135, 2-(3-{[4-(benzyloxy)-2-cyclopropylphenyl]amino}phenyl)-2-[(2-cyclohexylethyl)amino]aceticacid] here?
**A.** Its EC50 is 0.292 µM.

**Q.** For `N#CC1(NC(=O)c2ccccc2Nc2ccc(OCc3ccccn3)cc2C2CC2)CC1` [Compound 136, N-(1-cyanocyclopropyl)-2-({2-cyclopropyl-4-[(pyridin-2-yl)methoxy]phenyl}amino)benzamide], which EC50 is on record?
**A.** The EC50 was 0.295 µM.

**Q.** How did the EC50 turn out when `c1ccc(COc2ccc(Nc3cccc(OC4CCC4)c3)c(C3CC3)c2)nc1` [Compound 137, N-(3-cyclobutoxyphenyl)-2-cyclopropyl-4-[(pyridin-2-yl)methoxy]aniline] was run?
**A.** Its EC50 is 0.3 µM.

**Q.** `COC(=O)C(NCCC1CCCCC1)c1cccc(Nc2ccc(OCc3ccccc3)cc2C2CC2)c1` (stereo not shown) [Compound 138, methyl 2-(3-{[4-(benzyloxy)-2-cyclopropylphenyl]amino}phenyl)-2-[(2-cyclohexylethyl)amino]acetate] was tested. Which EC50 did it give?
**A.** The EC50 was 0.312 µM.

**Q.** With `Cc1cc(OCc2ccccc2)ccc1Nc1ccccc1C(=O)NCCC1CCCCC1` [Compound 139, 2-{[4-(benzyloxy)-2-methylphenyl]amino}-N-(2-cyclohexylethyl)benzamide] as the compound, how does the EC50 read?
**A.** Its EC50 is 0.329 µM.

**Q.** Which EC50 does the source give for `C[Si](C)(C)Oc1cccc(Nc2ccc(OCc3ccccn3)cc2C2CC2)c1` [Compound 141, 2-cyclopropyl-4-[(pyridin-2-yl)methoxy]-N-{3-[(trimethylsilyl)oxy]phenyl}aniline] here?
**A.** Its EC50 is 0.352 µM.

**Q.** `O=S(=O)(CCCC1CCCCC1)c1cccc(Nc2ccc(OCc3ccccc3)cc2C2CC2)c1` [Compound 142, 4-(benzyloxy)-N-[3-(3-cyclohexylpropanesulfonyl)phenyl]-2-cyclopropylaniline] was tested. Which EC50 did it give?
**A.** Its EC50 is 0.37 µM.

**Q.** With `CC(C)Cn1nnc(-c2cccc(Nc3ccc(OCc4ccccn4)cc3C3CC3)c2)n1` [Compound 147, 2-cyclopropyl-N-{3-[2-(2-methylpropyl)-2H-1,2,3,4-tetrazol-5-yl]phenyl}-4-[(pyridin-2-yl)methoxy]aniline] as the compound, how does the EC50 read?
**A.** Its EC50 is 0.414 µM.

**Q.** `Cc1cc(OCc2cccnn2)ccc1Nc1cccc(OCCCC2CCCCC2)c1` [Compound 148, N-[3-(3-cyclohexylpropoxy)phenyl]-2-methyl-4-[(pyridazin-3-yl)methoxy]aniline] was tested. Which EC50 did it give?
**A.** Its EC50 is 0.532 µM.

Source: US12421206B2, “Aryl-n-aryl derivatives for treating a RNA virus infection” (ABIVAX, priority 2018, dated 2025)
